The record followed here is ChEMBL document CHEMBL2375219, “Discovery of new potential hits of Plasmodium falciparum enoyl-ACP reductase through ligand- and structure-based drug design approaches” (Bioorg Med Chem Lett, 2013).

For orientation: pIC50 means the negative decadic logarithm of the IC50, by convention in mol/L.

This test can be described thus: Inhibition of Plasmodium falciparum enoyl-ACP reductase expressed in Escherichia coli BL21(DE3) assessed as inhibition of crotonyl-CoA reduction to butyryl-CoA by UV-Vis spectrophotometric analysis.
Consider `O=C(O)c1ccccc1/C=C1\SC(=S)N(c2ccc(F)cc2)C1=O`, for which the pIC50 is 4.573.
Consider `Cc1ccc(N2C(=O)/C(=C/c3ccc(O)c(O)c3)SC2=S)cc1C`, for which the negative-log IC50 (pIC50) was determined as 6.602.
Regarding `COc1ccc(/C=C2\SC(=S)N(c3cccc(OC)c3)C2=O)cc1`, the pIC50 is on record as 4.879.
Take `COc1cccc(N2C(=O)/C(=C/c3ccc(C(=O)O)cc3)SC2=S)c1`: the pIC50 is 5.009.
Consider `O=C(O)c1ccc(/C=C2\SC(=S)N(c3ccccc3)C2=O)cc1`, for which the pIC50 turned out to be 5.041.
`CCOc1ccc(N2C(=O)/C(=C/c3ccc(O)cc3)SC2=S)cc1`: the pIC50 came out at 5.081.
The value for `O=C(O)c1ccc(/C=C2\SC(=S)N(c3cccc(Cl)c3)C2=O)cc1` was 5.06; that for `CCOC(=O)c1ccc(/C=C2\SC(=S)N(c3cccc(Cl)c3)C2=O)cc1` was 4.724.
The value for `COc1cccc(N2C(=O)/C(=C/c3ccc(O)cc3)SC2=S)c1` was 4.91; that for `O=C1/C(=C/c2cccc(O)c2)SC(=S)N1c1ccccc1` was 5.066.
The value for `O=C1/C(=C/c2ccc(Cl)c([N+](=O)[O-])c2)SC(=S)N1c1cccc(Cl)c1` was 4.73.
Take `Cc1ccc(N2C(=O)/C(=C/c3ccc(O)c(O)c3)SC2=S)c(C)c1`: the negative logarithm of the IC50 (pIC50) came to 6.301.
Consider `CCOc1cc(/C=C2\SC(=S)N(c3ccccc3C)C2=O)ccc1O`, for which the pIC50 came out at 5.022.
Turning to `Cc1cccc(N2C(=O)/C(=C/c3ccc(O)c(Br)c3)SC2=S)c1`, the negative-log IC50 (pIC50) is 5.009.
As for `COC(=O)c1ccc(N2C(=O)/C(=C/c3cccc(OC)c3)SC2=S)cc1`, the pIC50 is 4.565.
With `O=C1/C(=C/c2ccc(O)cc2)SC(=S)N1c1ccc(Br)cc1`, the pIC50 came out at 4.955.
Consider `CCOc1cc(/C=C2\SC(=S)N(c3ccc(Br)cc3)C2=O)ccc1O`, for which the pIC50 stood at 4.857.
The value for `O=C1/C(=C/c2ccc(O)cc2)SC(=S)N1c1ccc(Cl)cc1` was 4.676.
`O=C(O)c1ccc(/C=C2\SC(=S)N(c3ccc(O)cc3)C2=O)cc1`: the pIC50 turned out to be 5.056.
`COc1cc(/C=C2\SC(=S)N(c3ccc([N+](=O)[O-])cc3)C2=O)cc(Cl)c1O`: the negative-log IC50 (pIC50) is reported as 5.004.
Take `O=C1/C(=C/c2ccc(O)c(O)c2)SC(=S)N1c1cccc(Cl)c1`: the pIC50 worked out at 6.097.
Take `O=C1/C(=C/c2cc(O)c(O)c(Br)c2)SC(=S)N1c1cccc(C(F)(F)F)c1`: the negative-log IC50 (pIC50) was determined as 5.004.
For the compound `O=C1/C(=C/c2ccc(O)cc2)SC(=S)N1c1cccc(F)c1`, the pIC50 stood at 5.066.
The value for `COC(=O)c1ccc(/C=C2\SC(=S)N(c3cccc(O)c3)C2=O)cc1` was 5.081; that for `O=C(O)c1ccccc1/C=C1\SC(=S)N(c2cccc(Cl)c2)C1=O` was 4.921.
The value for `COc1cccc(N2C(=O)/C(=C/c3cccc(O)c3)SC2=S)c1` was 5.041; that for `COc1ccc(/C=C2\SC(=S)N(c3cccc([N+](=O)[O-])c3)C2=O)cc1Br` was 4.627; that for `O=C1/C(=C/c2ccc(O)c([N+](=O)[O-])c2)SC(=S)N1c1cccc2ccccc12` was 4.535.
The value for `O=C(O)c1ccc(/C=C2\SC(=S)N(c3ccccc3F)C2=O)cc1` was 4.79.
`O=C1/C(=C/c2ccc([N+](=O)[O-])cc2)SC(=S)N1c1cccc(C(F)(F)F)c1`: the pIC50 came out at 4.896.
As to `O=C1/C(=C/c2ccc(O)c(O)c2)SC(=S)N1c1ccc(Cl)cc1`, the pIC50 was 5.102.
The value for `COc1ccc(N2C(=O)/C(=C/c3ccc(OC)c(O)c3)SC2=S)cc1` was 5.004.
The value for `O=C1/C(=C/c2ccc(O)cc2)SC(=S)N1c1ccc([N+](=O)[O-])cc1` was 5.387.
The value for `O=C1/C(=C/c2ccc(O)cc2)SC(=S)N1c1ccccc1` was 5.032; that for `COc1ccc(/C=C2\SC(=S)N(c3cccc(C(F)(F)F)c3)C2=O)cc1` was 5.187; that for `O=C1/C(=C/c2ccc([N+](=O)[O-])cc2)SC(=S)N1c1ccc(F)cc1` was 4.833.
